Data published in patent US20230167105A1, “BCL-2 PROTEIN INHIBITORS” (Recurium IP Holdings, LLC, priority 2020, published 2023).

Test system: MOLT-4 cells
Experiment: MOLT-4 Cell Proliferation Assay (CellTiter-Glo)
Format: cell-based
Conditions: Homo sapiens, 72 h, read-out: MOLT-4 CTG IC50
Procedure: Cell proliferation was measured using the CellTiter-Glo® Luminescent Cell Viability Assay. The assay involved the addition of a single reagent (CellTiter-Glo® Reagent) directly to cells cultured in serum-supplemented medium. MOLT-4 cells (ATCC, CRL-1582) were cultured according to ATCC recommendations and were seeded at 50,000 cells per well.
Each compound evaluated was prepared as a DMSO stock solution (10 mM). Compounds were tested in duplicate on each plate, with a 10-point serial dilution curve (1:3 dilution). The highest compound concentration was 10 μM (final), with a 0.1% final DMSO concentration. Plates were then incubated at 37° C., 5% CO2 for 72 h, cell plates were equilibrated at rt for approximately 30 mins. An equi-volume amount of CellTiter-Glo® Reagent (100 μL) was added to each well. Plates were mixed for 2 mins on an orbital shaker to induce cell lysis and then incubated at rt for 10 mins to stabilize the luminescent signal. Luminescence was recorded using a Envision plate reader according to CellTiter-Glo protocol. IC50 of each compound was calculated using GraphPad Prism by nonlinear regression analysis.

| SMILES | IC50 [nM] |
| --- | --- |
| CC1(C)CCC(CN2CCN(c3ccc(C(=O)NS(=O)(=O)c4ccc(N[C@H](CCN5CCN(CCCNc6ccc7c(c6)C(=O)N(C6CCC(=O)NC6=O)C7=O)CC5)CSc5ccccc5)c(S(=O)(=O)C(F)(F)F)c4)cc3)CC2)=C(C23CC(C(F)F)(C2)C3)C1 (stereo partly drawn) [Example 12, 4-[4-[[2-[3-(difluoromethyl)-1-bicyclo[1.1.1]pentanyl]-4,4-dimethyl-cyclohexen-1-yl]methyl]piperazin-1-yl]-N-[4-[[(1R)-3-[4-[3-[[2-(2,6-dioxo-3-piperidyl)-1,3-dioxo-isoindolin-5-yl]amino]propyl]piperazin-1-yl]-1-(phenylsulfanylmethyl)propyl]amino]-3-(trifluoromethylsulfonyl)phenyl]sulfonyl-benzamide] | ≤ 50 |
| Cc1ncsc1-c1ccc([C@H](C)NC(=O)[C@@H]2C[C@@H](O)CN2C(=O)[C@@H](NC(=O)CCCCCCC(=O)N2CCN(CC[C@H](CSc3ccccc3)Nc3ccc(S(=O)(=O)NC(=O)c4ccc(N5CCN(CC6=C(C78CC(C(F)F)(C7)C8)CC(C)(C)CC6)CC5)cc4)cc3S(=O)(=O)C(F)(F)F)CC2)C(C)(C)C)cc1 [Example 23, (2S,4R)-1-((S)-2-(8-(4-((R)-3-((4-(N-(4-(4-((2-(3-(difluoromethyl)bicyclo[1.1.1]pentan-1-yl)-4,4-dimethylcyclohex-1-en-1-yl)methyl)piperazin-1-yl)benzoyl)sulfamoyl) ((trifluoromethyl)sulfonyl)phenyl)amino)-4-(phenylthio)butyl)piperazin-1-yl)-8-oxooctanamido)-3,3-dimethylbutanoyl)-4-hydroxy-N—((S)-1-(4-(4-methylthiazol-5-yl)phenyl)ethyl)pyrrolidine-2-carboxamide] | 50 to 150 |
| CC1(C)CCC(CN2CCN(c3ccc(C(=O)NS(=O)(=O)c4ccc(N[C@H](CCN5CCN(CCCCNc6cccc7c6C(=O)N(C6CCC(=O)NC6=O)C7=O)CC5)CSc5ccccc5)c(S(=O)(=O)C(F)(F)F)c4)cc3)CC2)=C(C23CC(C(F)F)(C2)C3)C1 (stereo partly drawn) [Example 8, 4-[4-[[2-[3-(difluoromethyl)-1-bicyclo[1.1.1]pentanyl]-4,4-dimethyl-cyclohexen-1-yl]methyl]piperazin-1-yl]-N-[4-[[(1R)-3-[4-[4-[[2-(2,6-dioxo-3-piperidyl)-1,3-dioxo-isoindolin-4-yl]amino]butyl]piperazin-1-yl]-1-(phenylsulfanylmethyl)propyl]amino]-3-(trifluoromethylsulfonyl)phenyl]sulfonyl-benzamide] | ≤ 50 |
| Cc1cc([C@@H](C(=O)N2C[C@H](O)C[C@H]2C(=O)N[C@@H](CC(=O)NCCCCCC(=O)N2CCN(CC[C@H](CSc3ccccc3)Nc3ccc(S(=O)(=O)NC(=O)c4ccc(N5CCN(CC6=C(C78CC(C(F)F)(C7)C8)CC(C)(C)CC6)CC5)cc4)cc3S(=O)(=O)C(F)(F)F)CC2)c2ccc(-c3scnc3C)cc2)C(C)C)on1 [Example 56, (2S,4R)—N—((S)-3-((6-(4-((R)-3-((4-(N-(4-(4-((2-(3-(difluoromethyl)bicyclo[1.1.1]pentan-1-yl)-4,4-dimethylcyclohex-1-en-1-yl)methyl)piperazin-1-yl)benzoyl)sulfamoyl)-2-((trifluoromethyl)sulfonyl)phenyl)amino)-4-(phenylthio)butyl)piperazin-1-yl)-6-oxohexyl)amino)-1-(4-(4-methylthiazol-5-yl)phenyl)-3-oxopropyl)-4-hydroxy-1-((S)-3-methyl-2-(3-methylisoxazol-5-yl)butanoyl)pyrrolidine-2-carboxamide] | ≥ 150 |
| CN(CCCNc1cccc2c1C(=O)N(C1CCC(=O)NC1=O)C2=O)CC[C@H](CSc1ccccc1)Nc1ccc(S(=O)(=O)NC(=O)c2ccc(N3CCN(CC4=C(C56CC(C(F)F)(C5)C6)CC(C)(C)CC4)CC3)cc2)cc1S(=O)(=O)C(F)(F)F (stereo partly drawn) [Example 19, 4-(4-((2-(3-(difluoromethyl)bicyclo[1.1.1]pentan-1-yl)-4,4-dimethylcyclohex-1-en-1-yl)methyl)piperazin-1-yl)-N-((4-(((2R)-4-((3-((2-(2,6-dioxopiperidin-3-yl)-1,3-dioxoisoindolin-4-yl)amino)propyl)(methyl)amino)-1-(phenylthio)butan-2-yl)amino)-3-((trifluoromethyl)sulfonyl)phenyl)sulfonyl)benzamide] | 50 to 150 |
| CC1(C)CCC(CN2CCN(c3ccc(C(=O)NS(=O)(=O)c4ccc(N[C@H](CCN5CCN(CCCCCc6cccc7c6C(=O)N(C6CCC(=O)NC6=O)C7=O)CC5)CSc5ccccc5)c(S(=O)(=O)C(F)(F)F)c4)cc3)CC2)=C(C23CC(C(F)F)(C2)C3)C1 (stereo partly drawn) [Example 22, 4-(4-((2-(3-(difluoromethyl)bicyclo[1.1.1]pentan-1-yl)-4,4-dimethylcyclohex-1-en-1-yl)methyl)piperazin-1-yl)-N-((4-(((2R)-4-(4-(5-(2-(2,6-dioxopiperidin-3-yl)-1,3-dioxoisoindolin-4-yl)pentyl)piperazin-1-yl)-1-(phenylthio)butan-2-yl)amino)-3-((trifluoromethyl)sulfonyl)phenyl)sulfonyl)benzamide] | ≥ 150 |
| CC1(C)CCC(CN2CCN(c3ccc(C(=O)NS(=O)(=O)c4ccc(N[C@H](CCN5CCN(CCCC#Cc6cccc7c6CN(C6CCC(=O)NC6=O)C7=O)CC5)CSc5ccccc5)c(S(=O)(=O)C(F)(F)F)c4)cc3)CC2)=C(C23CC(C(F)F)(C2)C3)C1 (stereo partly drawn) [Example 29, 4-(4-((2-(3-(difluoromethyl)bicyclo[1.1.1]pentan-1-yl)-4,4-dimethylcyclohex-1-en-1-yl)methyl)piperazin-1-yl)-N-((4-(((2R)-4-(4-(5-(2-(2,6-dioxopiperidin-3-yl)-1-oxoisoindolin-4-yl)pent-4-yn-1-yl)piperazin-1-yl)-1-(phenylthio)butan-2-yl)amino)-3-((trifluoromethyl)sulfonyl)phenyl)sulfonyl)benzamide] | ≤ 50 |
| CN(CCCCCNc1cccc2c1C(=O)N(C1CCC(=O)NC1=O)C2=O)CC[C@H](CSc1ccccc1)Nc1ccc(S(=O)(=O)NC(=O)c2ccc(N3CCN(CC4=C(C56CC(C(F)F)(C5)C6)CC(C)(C)CC4)CC3)cc2)cc1S(=O)(=O)C(F)(F)F (stereo partly drawn) [Example 20, 4-(4-((2-(3-(difluoromethyl)bicycle[1.1.1]pentan-1-yl)-4,4-dimethylcyclohex-1-en-1-yl)methyl)piperazin-1-yl)-N-((4-(((2R)-4-((5-((2-(2,6-dioxopiperidin-3-yl)-1,3-dioxoisoindolin-4-yl)amino)pentyl)(methyl)amino)-1-(phenylthio)butan-2-yl)amino)-3-((trifluoromethyl)sulfonyl)phenyl)sulfonyl)benzamide] | ≤ 50 |
| Cc1ncsc1-c1ccc([C@H](CC(=O)NCCCCCCN2CCN(CC[C@H](CSc3ccccc3)Nc3ccc(S(=O)(=O)NC(=O)c4ccc(N5CCN(CC6=C(C78CC(C(F)F)(C7)C8)CC(C)(C)CC6)CC5)cc4)cc3S(=O)(=O)C(F)(F)F)CC2)NC(=O)[C@@H]2C[C@@H](O)CN2C(=O)[C@@H](NC(=O)C2(F)CC2)C(C)(C)C)cc1 [Example 48] | ≥ 150 |
| CC1(C)CCC(c2ccc(Cl)cc2)=C(CN2CCN(c3ccc(C(=O)NS(=O)(=O)c4ccc(N[C@H](CCN5CCOCC5)CSc5ccccc5)c(S(=O)(=O)C(F)(F)F)c4)cc3)CC2)C1 [ABT-263, navitoclax, reference compound] | 50 to 150 |
